Results taken from patent US7981930B2, “Compositions and kits for treating influenza” (Adamas Pharmaceuticals, Inc., priority 2007, dated 2011).

Test system: wild type A/Albany (H3N2) strain
Assay: Hollow fiber system, MDCK cells, continuous infusion 168 hours, viral titer and sequencing
Type: cell-based, Influenza A virus (H3N2)
Details: monotherapy arms vs. triple high dose arm

Structure (SMILES): CCOC(=O)C1=C[C@@H](OC(CC)CC)[C@H](NC(C)=O)[C@@H](N)C1 [Oseltamivir]
- formation of drug resistance (M2, NA sequencing): appreciable formation of M2 and NA drug resistance
